PubChem BioAssay AID488790 (NMMLSC, 2010)

Test system: S. cerevisiae AGP1-GFP strain, flow cytometry fluorescence, 3 h
Assay: AGP1-GFP level modulation, analog dose series – cell-based, flow cytometry, S. cerevisiae, cherry pick 3, SAR follow-up (AID 488790)

EC50: 4.59 µM
SMILES: CCOC(=O)CS(=O)(=O)c1nc(-c2ccccc2)cc(C(F)(F)F)n1
